# From PMC5862567, “Validating and enabling phosphoglycerate dehydrogenase (PHGDH) as a target for fragment-based drug discovery in PHGDH-amplified breast cancer” (Oncotarget, 2016)
# Where “and” joins values, the source holds several entries; their conditions need not be identical. Equal values may be shown once. Entries after “also recorded” stand apart in the source; their conditions may differ. Read-outs that look alike come from different tables or passages of the source.
# Key:
# [1] = biological target: T1, recombinant full-length PHGDH (Homo sapiens, UniProt O43175); experiment: Differential scanning fluorimetry (DSF) thermal shift assay, fragment screen; format: binding; design: key to Z score: Z-score of Tm shift, in standard deviations from the screen mean; conditions: for Z score: average Z score of primary fragment screens by DSF; for ΔTm at 1000 µM: fragment 1 mM, primary DSF screen, 15 μM PHGDH, read-out: ΔTm (screening hit); for ΔTm (repurchased fragment): DSF
# T1 construct: encoding for the full-length enzyme (aa 1-533); His6 (N, cleaved yes); TEV protease recognition site (N, cleaved yes); made in house; host or cells: E. coli Rosetta (DE3)
# T1 sequence (O43175 1-533): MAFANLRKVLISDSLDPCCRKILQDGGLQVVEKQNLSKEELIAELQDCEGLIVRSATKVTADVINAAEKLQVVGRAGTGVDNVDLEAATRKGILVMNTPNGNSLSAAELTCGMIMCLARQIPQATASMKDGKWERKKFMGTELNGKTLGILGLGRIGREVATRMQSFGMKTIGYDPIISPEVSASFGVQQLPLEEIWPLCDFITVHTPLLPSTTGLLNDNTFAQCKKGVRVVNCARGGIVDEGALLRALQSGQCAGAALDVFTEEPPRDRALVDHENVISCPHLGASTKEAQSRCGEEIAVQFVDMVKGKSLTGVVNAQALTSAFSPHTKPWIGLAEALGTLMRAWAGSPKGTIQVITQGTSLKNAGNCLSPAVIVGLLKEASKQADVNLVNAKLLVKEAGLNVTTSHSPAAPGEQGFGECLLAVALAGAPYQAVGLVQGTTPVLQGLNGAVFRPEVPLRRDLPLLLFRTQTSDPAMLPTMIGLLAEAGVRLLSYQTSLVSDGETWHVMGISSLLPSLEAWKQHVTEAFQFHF
# Procedure: In this study a ‘rule-of-three’ [18] compliant library of 600 fragments (CRT Cambridge, UK) was screened against recombinant full-length PHGDH using a differential scanning fluorimetry (DSF) assay. PHGDH has an average melting temperature (Tm) of 54 °C. Fragments were screened at 1 mM in the presence of 1 % DMSO. 1 mM NADH was used as positive control, and gave an increased Tm of 61 °C, corresponding to a Δ Tm of 7 °C (Supplementary Figure S2). Hits were determined based on an average Z-score ≥ 1, i.e. to a change in Tm of PHGDH equal to or greater than one standard deviation of the mean (Supplementary Table S1). Applying this threshold, 42 compounds were classified as hits, which corresponds to a hit rate of […]. A subset of 15 fragments was commercially available and were repurchased and further evaluated in an ITC competition experiment (Figure 3, Table 1, Supplementary Figure S3). The ITC competition experiments confirmed binding of 13 fragments to the cofactor-binding pocket of PHGDH. […] In order to further characterise the hits, and to help us prioritise their use as seeds for further hit-expansion studies, we undertook a crystallographic investigation of their respective binding modes.
# The DSF assay was performed in 384-well plates (Corning, black) in 25 mM HEPES, pH 7.5, 100 mM NaCl, 0.5 mM TCEP, 10 x SYPRO® Orange (Thermo Fisher Scientific), in a final volume of 15 μL containing 15 μM PHGDH and […]. The fragments were added from a 100 mM master stock in 100 % DMSO to a final concentration of 1 mM using an ECHO® acoustic liquid handler (Labcyte). Reference wells contained DMSO only and 1 mM NADH was used as positive control.
# The heat denaturation profile of PHGDH was followed using the fluorescence of Sypro Orange with excitation and emission wavelengths of 470 and 570 nm, respectively. Analysis was performed in GraphPad Prism using the Boltzmann equation to determine the melting temperature, Tm, which is the inflection point of the sigmoidal denaturation curve.
# [2] = biological target: T2, sPHGDH (aa 3-314), cofactor-binding pocket (Homo sapiens, UniProt O43175); experiment: ITC competition experiment (NADH titrated into sPHGDH premixed with fragment); conditions: for Kd / ΔH / ΔS: competition ITC, 5 mM fragment, 25 °C; for Kd: 0.5 mM NADH into 0.05 mM sPHGDH, 5 % DMSO; for LE: ΔG per number of non-hydrogen atoms (= #)
# T2 construct: the truncated version (sPHGDH, aa 3-314); His6 (N, cleaved yes); TEV protease recognition site (N, cleaved yes); made in house; host or cells: E. coli Rosetta (DE3)
# T2 sequence (O43175 3-314): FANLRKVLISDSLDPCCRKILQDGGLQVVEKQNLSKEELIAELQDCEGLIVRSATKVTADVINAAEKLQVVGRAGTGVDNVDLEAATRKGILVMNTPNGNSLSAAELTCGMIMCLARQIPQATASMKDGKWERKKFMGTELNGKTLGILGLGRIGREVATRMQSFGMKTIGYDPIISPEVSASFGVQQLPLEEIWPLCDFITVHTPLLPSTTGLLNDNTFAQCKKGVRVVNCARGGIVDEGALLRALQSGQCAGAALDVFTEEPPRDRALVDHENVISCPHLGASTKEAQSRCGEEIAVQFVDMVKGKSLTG
# Procedure: To remove residual bound cofactor, sPHGDH was incubated with 0.5 equivalents of activated charcoal for 30 minutes at room temperature prior to performing the ITC experiments. […] 1 x 0.5 μL, followed by 17 x 2 μL injections of ligands into protein with 120 seconds spacing between the injections was conducted. Titration of 0.5 mM NADH in 5 % DMSO into 0.05 mM sPHGDH in 5 % DMSO was used as reference.
# PHGDH = conditions: cited from earlier work
Z score [1],ΔTm at 1000 µM [1] [°C],ΔTm (repurchased fragment) [1] [°C],Kd ([2]; read-out: Kd),ΔH [2] [kcal/mol],ΔS [2],LE [2],"fold reduced affinity compared to fragment 16 ([2]; competitive ITC Kd, versus 16) [fold]",Kd [2],"fold weaker binding affinity compared to 17 ([2]; competitive ITC Kd, versus 17) [fold]",ΔTm ([1]; 1 mM NADH positive control) [°C],"Tm of PHGDH in presence of compound ([1]; 1 mM NADH positive control, PHGDH alone Tm 54 °C) [°C]",Structure (SMILES),mode of PHGDH inhibition (PHGDH)
1.0 ± 0.8,2.3 ± 1,-0.1 ± 0.2,1.6 ± 0.2 mM,-1.29,-0.07 kJ (mol x K),0.35 kcal/(mol·heavy atom),–,–,–,–,–,"NC(=O)c1ccc(F)c(Cl)c1 [Fragment 5, 3-Chloro-4-fluorobenzamide]",–
–,–,–,15.9 ± 7.4 mM,-46.44,-0.67 kJ (mol x K),0.22 kcal/(mol·heavy atom),2.5,–,–,–,–,Cc1cccc2c(O)noc12 [Fragment 18],–
1.0 ± 1.0,2 ± 2.1,-0.1 ± 0.2,–,–,–,–,–,No competition,–,–,–,"CCc1nc(C)c[nH]1 [Fragment 2, 2-Ethyl-4-methylimidazole]",–
1.1 ± 0.6,1.7 ± 0.7,-0.6 ± 0.6,11.5 ± 8.4 mM,-2.75,-0.08 kJ (mol x K),0.18 kcal/(mol·heavy atom),–,–,–,–,–,"Cc1cncc(Oc2cccc(N)c2)n1 [Fragment 11, 3-(6-Methylpyrazin-2-yl)oxyaniline]",–
1.5 ± 0.4,1.7 ± 0.6,0.4 ± 0.4,5.9 ± 1.5 mM,-69.96,-1.02 kJ (mol x K),0.28 kcal/(mol·heavy atom),–,–,–,–,–,"O=C1COc2cc(O)ccc21 [Fragment 8, 6-Hydroxy-2,3-dihydrobenzo[b] furan-3-one]",–
1.0 ± 0.8,2.4 ± 1.1,0.2 ± 0.3,12.8 ± 2.7 mM,1.98,-0.01 kJ (mol x K),0.21 kcal/(mol·heavy atom),–,–,–,–,–,"Oc1ncnc2cccc(F)c12 [Fragment 4, 5-Fluoro-4-hydroxy quinazoline]",–
1.0 ± 0.4,2.2 ± 0.8,-0.2 ± 0.2,5.8 ± 2 mM,-111.7,-1.61 kJ (mol x K),0.23 kcal/(mol·heavy atom),–,–,–,–,–,"Cn1nc(-c2ccccc2)cc1N [Fragment 3, 1-Methyl-3-phenyl-1H-pyrazol-5-amine]",–
–,–,–,2.4 ± 0.7 mM,-362.64,-5.14 kJ (mol x K),0.32 kcal/(mol·heavy atom),–,–,–,–,–,"Oc1noc2cc(Cl)ccc12 [Fragment 17, 6-chloro-3-hydroxybenzisoxazole]",–
1.0 ± 0.9,1.4 ± 0.6,-0.8 ± 0.3,–,-62.33,-0.91 kJ (mol x K),–,–,–,–,–,–,"Nc1cccc(-c2cnco2)c1 [Fragment 10, 3-(1,3-oxazol-5-yl)aniline]",–
1.1 ± 0.7,2.4 ± 1.2,0.2 ± 0.2,1.5 ± 0.2 mM,-380.95,-5.40 kJ (mol x K),0.38 kcal/(mol·heavy atom),–,–,–,–,–,"Cc1cccc2cc[nH]c12 [Fragment 6, 7-Methyl-1H-indole]",–
1.8 ± 1.4,2 ± 1.2,1.2 ± 0.4,11.1 ± 5 mM,-24.38,-0.38 kJ (mol x K),0.24 kcal/(mol·heavy atom),–,–,–,–,–,"Cn1ccc2cc(N)ccc21 [Fragment 9, 5-Amino-1-methyl-1H-indole]",–
1.4 ± 0.2,0.8 ± 0.1,0.3 ± 0.1,–,–,–,–,–,No competition,–,–,–,"Oc1ccnc(O)c1 [Fragment 13, 2,4.Dihydroxy pyridine]",–
1.2 ± 0.3,1.3 ± 0.2,-0.2 ± 0.4,2.8 ± 1.6 mM,-419.02,-5.93 kJ (mol x K),0.27 kcal/(mol·heavy atom),–,–,–,–,–,"COc1ccc(NC(C)=O)cc1Cl [Fragment 15, N-(3-chloro-4-methoxyphenyl) acetamide]",–
1.1 ± 0.2,1.4 ± 0.5,0.4 ± 0.3,26 mM and 26.2 mM,-11.2,-0.19 kJ (mol x K),0.2 kcal/(mol·heavy atom),–,–,–,–,–,"Cc1ccc(F)cc1C(=O)O [Fragment 14, 5-Fluoro-2-methylbenzoic acid]",–
–,–,–,15.4 ± 10.2 mM,-45.43,-0.67 kJ (mol x K),0.22 kcal/(mol·heavy atom),–,–,6,–,–,"Oc1noc2ccc(F)cc12 [Fragment 19, 5-fluoro-3-hydroxybenzisoxazole]",–
–,–,–,–,–,–,–,–,–,–,7,61,"NC(=O)C1=CN([C@@H]2O[C@H](COP(=O)(O)OP(=O)(O)OC[C@H]3O[C@@H](n4cnc5c(N)ncnc54)[C@H](O)[C@@H]3O)[C@@H](O)[C@H]2O)C=CC1 [NADH, reference compound]",–
–,–,–,–,–,–,–,–,–,–,–,–,CCOC(=O)c1sc(NC(=O)c2ccco2)c(SC#N)c1C [CBR-5884],non-competitive
1.4 ± 0.7,2.5 ± 0.7,0.2 ± 0.3,6.5 ± 4.7 mM,-91.44,-1.33 kJ (mol x K),0.3 kcal/(mol·heavy atom),–,–,–,–,–,"Oc1noc2ccccc12 [Fragment 16, 3-Hydroxy benzisoxazole]",–
1.2 ± 0.9,1.8 ± 1.7,-0.3 ± 0.2,16.6 ± 10.4 mM,3.78,0.02 kJ (mol x K),0.15 kcal/(mol·heavy atom),–,–,–,–,–,"Cc1cncc(Oc2cccc(CO)c2)n1 [Fragment 7, [3-(6-Methylpyrazin-2-yl)oxyphenyl] methanol]",–

Structure (SMILES),Z score [1],ΔTm at 1000 µM [1] [°C],ΔTm (repurchased fragment) [1] [°C],Kd ([2]; read-out: Kd),ΔH [2] [kcal/mol],ΔS [2],LE [2],"fold reduced affinity compared to fragment 16 ([2]; competitive ITC Kd, versus 16) [fold]",Kd [2],"fold weaker binding affinity compared to 17 ([2]; competitive ITC Kd, versus 17) [fold]",ΔTm ([1]; 1 mM NADH positive control) [°C],"Tm of PHGDH in presence of compound ([1]; 1 mM NADH positive control, PHGDH alone Tm 54 °C) [°C]",mode of PHGDH inhibition (PHGDH)
"c1ccc(Cn2ccnc2)cc1 [Fragment 12, 1-Benzylimidazole]",1.1 ± 0.2,1.3 ± 0.9,-0.6 ± 0.4,11.8 ± 9.6 mM,-15.4,-0.25 kJ (mol x K),0.22 kcal/(mol·heavy atom),–,–,–,–,–,–
Oc1noc2ccc(Br)cc12 [Fragment 20],–,–,–,–,–,–,–,–,no binding affinity was detected; also recorded: Compound precipitated,–,–,–,–
